Experimental data reported in publication PMC9652372, “Glycolytic flux control by drugging phosphoglycolate phosphatase” (Nature Communications, 2022).
≈ marks a conversion by molar mass, not a printed value. Where “and” joins values, the source holds several entries; their conditions need not be identical. Equal values may be shown once. Read-outs that look alike come from different tables or passages of the source.

How the values were obtained:
murine PGP [1] = biological target: T1, murine PGP (Mus musculus, UniProt Q8CHP8); experiment: IC50 determination, murine PGP, pNPP dephosphorylation
T1 sequence (Q8CHP8 1-321): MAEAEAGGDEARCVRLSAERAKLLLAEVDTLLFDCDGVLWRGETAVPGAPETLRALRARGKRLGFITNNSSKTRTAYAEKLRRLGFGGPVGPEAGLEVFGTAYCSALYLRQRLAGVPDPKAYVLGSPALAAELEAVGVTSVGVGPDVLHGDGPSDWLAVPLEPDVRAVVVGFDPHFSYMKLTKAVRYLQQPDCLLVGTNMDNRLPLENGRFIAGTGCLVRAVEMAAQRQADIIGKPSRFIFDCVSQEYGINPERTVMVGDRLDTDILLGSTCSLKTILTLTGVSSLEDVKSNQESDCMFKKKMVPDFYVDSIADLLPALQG

physchem = conditions: organic solvent or mixture
murine PGP [2] = biological target: T1, murine PGP; experiment: biochemical
murine PDXP/PGP hybrid = biological target: T2, murine PDXP/PGP hybrid (Mus musculus, UniProt P60487+Q8CHP8); experiment: PG dephosphorylation by PDXP/PGP hybrid protein; assay type: biochemical
T2 construct: consisting of the PGP cap domain (amino acids 114–233) fused to the PDXP core domain; His6 (N, cleaved yes); made in house; host or cells: Escherichia coli BL21 (DE3), pETM11
T2 sequence (P60487 1-100): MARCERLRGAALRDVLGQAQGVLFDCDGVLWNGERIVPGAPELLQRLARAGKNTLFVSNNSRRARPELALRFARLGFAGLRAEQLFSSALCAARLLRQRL
T2 sequence (Q8CHP8 114-233): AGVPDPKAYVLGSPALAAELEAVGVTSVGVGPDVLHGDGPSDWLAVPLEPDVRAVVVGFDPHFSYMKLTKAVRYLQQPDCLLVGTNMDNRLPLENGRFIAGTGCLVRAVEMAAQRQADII
T2 sequence (P60487 208-292): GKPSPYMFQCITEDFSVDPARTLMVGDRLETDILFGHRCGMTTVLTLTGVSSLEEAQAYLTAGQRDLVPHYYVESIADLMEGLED

PGP^WT = biological target: T3, PGP^WT (Mus musculus, UniProt Q8CHP8); experiment: Differential scanning fluorimetry (Thermofluor); assay type: binding
T3 construct: His6 (N, cleaved yes); made in house; host or cells: Escherichia coli BL21 (DE3), pETM11, co-expressed with groES-groEL-tig
T3 sequence (Q8CHP8 1-321): T1 sequence (Q8CHP8 1-321)

murine PDXP = biological target: T4, murine PDXP (Mus musculus, UniProt P60487); experiment: PDXP activity towards pyridoxal 5'-phosphate (PLP); conditions: phosphatase PDXP; species M.m.; substrate PLP; n.s. = no significant inhibition detectable
T4 sequence (P60487 1-292): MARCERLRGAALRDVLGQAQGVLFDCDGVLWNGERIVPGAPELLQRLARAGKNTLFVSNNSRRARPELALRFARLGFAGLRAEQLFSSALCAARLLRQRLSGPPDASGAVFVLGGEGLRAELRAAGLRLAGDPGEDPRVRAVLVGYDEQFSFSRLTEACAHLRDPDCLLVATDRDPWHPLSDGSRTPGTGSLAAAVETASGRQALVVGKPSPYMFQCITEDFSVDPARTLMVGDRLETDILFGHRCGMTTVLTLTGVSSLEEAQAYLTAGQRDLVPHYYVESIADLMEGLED

PGP = biological target: T5, PGP (Mus musculus, UniProt Q8CHP8); experiment: Steady state kinetics of PG dephosphorylation in presence of CP1-3
T5 sequence (Q8CHP8 1-321): T1 sequence (Q8CHP8 1-321)

[3] = PG dephosphorylation, increasing CP concentrations

IC50 (murine PGP [1]): 4760 ± 1190 nM | remaining activity at 50 µM (murine PGP [1]; read-out: M.m PGP on pNPP, activity, control = 100.00, CP log[M] -4.30103): 28.4% | remaining activity at 25 µM (murine PGP [1]; read-out: M.m PGP on pNPP, activity, control = 100.00, CP log[M] -4.60206): 32.2% | remaining activity at 10 µM (murine PGP [1]; read-out: M.m PGP on pNPP, activity, control = 100.00, CP log[M] -5): 43.5% | remaining activity at 5 µM (murine PGP [1]; read-out: M.m PGP on pNPP, activity, control = 100.00, CP log[M] -5.30103): 58.6% | remaining activity at […] (murine PGP [1]; read-out: M.m PGP on pNPP, activity, control = 100.00, CP log[M] -5.60206): 63.7% | remaining activity at 1 µM (murine PGP [1]; read-out: M.m PGP on pNPP, activity, control = 100.00, CP log[M] -6): 94.7% | remaining activity at 0.5 µM (murine PGP [1]; read-out: M.m PGP on pNPP, activity, control = 100.00, CP log[M] -6.30103): 85.5% | remaining activity at […] (murine PGP [1]; read-out: M.m PGP on pNPP, activity, control = 100.00, CP log[M] -6.60206): 93.2% | remaining activity at 0.125 µM (murine PGP [1]; read-out: M.m PGP on pNPP, activity, control = 100.00, CP log[M] -6.90309): 91.7% | remaining activity at 0.0625 µM (murine PGP [1]; read-out: M.m PGP on pNPP, activity, control = 100.00, CP log[M] -7.20412): 105% | remaining activity at 0.03125 µM (murine PGP [1]; read-out: M.m PGP on pNPP, activity, control = 100.00, CP log[M] -7.50515): 94% | solubility (physchem): 15 mM (≈ 9220 µg/mL) | IC50 (murine PGP [2]): 1580 nM and 700 nM | remaining activity at 64 µM (murine PDXP/PGP hybrid; activity, control = 100, CP log[M] -4.19382): 17.6% | remaining activity at 32 µM (murine PDXP/PGP hybrid; activity, control = 100, CP log[M] -4.49485): 16% | remaining activity at 16 µM (murine PDXP/PGP hybrid; activity, control = 100, CP log[M] -4.79588): 23.7% | remaining activity at 4 µM (murine PDXP/PGP hybrid; activity, control = 100, CP log[M] -5.39794): 48.1% | remaining activity at 2 µM (murine PDXP/PGP hybrid; activity, control = 100, CP log[M] -5.69897): 55.7% | remaining activity at 1 µM (murine PDXP/PGP hybrid; activity, control = 100, CP log[M] -6): 80.9% | remaining activity at 0.5 µM (murine PDXP/PGP hybrid; activity, control = 100, CP log[M] -6.30103): 90.8% | remaining activity at […] (murine PDXP/PGP hybrid; activity, control = 100, CP log[M] -6.60206): 93.9% | remaining activity at 0.125 µM (murine PDXP/PGP hybrid; activity, control = 100, CP log[M] -6.90309): 94.7% | remaining activity at 0.0625 µM (murine PDXP/PGP hybrid; activity, control = 100, CP log[M] -7.20412): 87.8% | remaining activity at 0.015625 µM (murine PDXP/PGP hybrid; activity, control = 100, CP log[M] -7.80618): 101% | IC50 (murine PDXP/PGP hybrid; phosphatase PDXP/PGP, species M.m., substrate PG): 2570 ± 230 nM | TM (PGP^WT; Inhibitor 0.146484 µM): 66.4 °C | TM (PGP^WT; Inhibitor 0.292969 µM): 66.5 °C | TM (PGP^WT; Inhibitor 0.585938 µM): 66.5 °C | TM (PGP^WT; Inhibitor 1.17188 µM): 66.5 °C | TM (PGP^WT; Inhibitor 2.34375 µM): 66.6 °C | TM (PGP^WT; Inhibitor 4.6875 µM): 66.8 °C | TM (PGP^WT; Inhibitor 9.375 µM): 67.7 °C | TM (PGP^WT; Inhibitor 18.75 µM): 68.2 °C | TM (PGP^WT; Inhibitor 37.5 µM): 68.6 °C | TM (PGP^WT; Inhibitor 75 µM): 68.6 °C | TM (PGP^WT; Inhibitor 150 µM): 67.9 °C | increase in the maximal PGP melting temperature (PGP^WT; from 66.4 °C (control conditions)): 2.2 ° | IC50 (murine PDXP): n.s. | mode of PGP inhibition (PGP): competitive inhibitors | vmax (PGP; CP 1.0 µM): 49.7 ± 4.0 µmol/min/mg | vmax (PGP; CP 2.0 µM): 51.9 ± 5.9 µmol/min/mg | vmax (PGP; CP 4.0 µM): 36.9 ± 4.8 µmol/min/mg | effect on vmax (reduction) (PGP; [3]): without affecting vmax | increase of KM (PGP; [3]): ~ 3 fold
Compound: COc1ccc(C(=O)Nc2ccc(Cc3ccc(NC(=O)c4ccc(OC)c(OC)c4)c(C(=O)O)c3)cc2C(=O)O)cc1OC [CP2]
PGP activity (PGP; 1 µM CP2, PG 25 µM): 1.021 µmol Pi/min/mg and 0.7809 µmol Pi/min/mg and 1.201 µmol Pi/min/mg | PGP activity (PGP; 1 µM CP2, PG 50 µM): 2.343 µmol Pi/min/mg and 1.682 µmol Pi/min/mg and 2.403 µmol Pi/min/mg | PGP activity (PGP; 1 µM CP2, PG 100 µM): 4.865 µmol Pi/min/mg and 4.265 µmol Pi/min/mg and 4.986 µmol Pi/min/mg | PGP activity (PGP; 1 µM CP2, PG 200 µM): 9.31 µmol Pi/min/mg and 8.409 µmol Pi/min/mg and 9.7309 µmol Pi/min/mg | PGP activity (PGP; 1 µM CP2, PG 300 µM): 14.9605 µmol Pi/min/mg and 10.9951 µmol Pi/min/mg and 14.0593 µmol Pi/min/mg | PGP activity (PGP; 1 µM CP2, PG 400 µM): 18.0247 µmol Pi/min/mg and 16.763 µmol Pi/min/mg and 17.3037 µmol Pi/min/mg | PGP activity (PGP; 1 µM CP2, PG 500 µM): 19.8272 µmol Pi/min/mg and 20.5481 µmol Pi/min/mg and 19.4667 µmol Pi/min/mg | PGP activity (PGP; 1 µM CP2, PG 600 µM): 21.8099 µmol Pi/min/mg and 21.6296 µmol Pi/min/mg | PGP activity (PGP; 1 µM CP2, PG 700 µM): 22.7111 µmol Pi/min/mg and 24.1531 µmol Pi/min/mg and 23.6123 µmol Pi/min/mg | PGP activity (PGP; 1 µM CP2, PG 800 µM): 21.8099 µmol Pi/min/mg and 23.0716 µmol Pi/min/mg and 24.8741 µmol Pi/min/mg | PGP activity (PGP; 2 µM CP2, PG 25 µM): 0.7809 µmol Pi/min/mg and 0.7208 µmol Pi/min/mg and 0.9611 µmol Pi/min/mg | PGP activity (PGP; 2 µM CP2, PG 50 µM): 1.081 µmol Pi/min/mg and 1.682 µmol Pi/min/mg and 1.982 µmol Pi/min/mg | PGP activity (PGP; 2 µM CP2, PG 100 µM): 2.9433 µmol Pi/min/mg and 3.424 µmol Pi/min/mg and 3.784 µmol Pi/min/mg | PGP activity (PGP; 2 µM CP2, PG 200 µM): 6.247 µmol Pi/min/mg and 7.088 µmol Pi/min/mg and 7.028 µmol Pi/min/mg | PGP activity (PGP; 2 µM CP2, PG 300 µM): 7.39 µmol Pi/min/mg and 11.3555 µmol Pi/min/mg and 12.0765 µmol Pi/min/mg | PGP activity (PGP; 2 µM CP2, PG 400 µM): 12.7975 µmol Pi/min/mg and 13.6988 µmol Pi/min/mg and 14.4198 µmol Pi/min/mg | PGP activity (PGP; 2 µM CP2, PG 500 µM): 16.763 µmol Pi/min/mg and 16.4025 µmol Pi/min/mg | PGP activity (PGP; 2 µM CP2, PG 600 µM): 17.8444 µmol Pi/min/mg and 17.3037 µmol Pi/min/mg and 17.6642 µmol Pi/min/mg | PGP activity (PGP; 2 µM CP2, PG 700 µM): 19.2864 µmol Pi/min/mg and 19.1062 µmol Pi/min/mg | PGP activity (PGP; 2 µM CP2, PG 800 µM): 20.3679 µmol Pi/min/mg and 20.7284 µmol Pi/min/mg and 19.2864 µmol Pi/min/mg | PGP activity (PGP; 4 µM CP2, PG 50 µM): 1.502 µmol Pi/min/mg and 0.7809 µmol Pi/min/mg and 1.321 µmol Pi/min/mg | PGP activity (PGP; 4 µM CP2, PG 100 µM): 2.523 µmol Pi/min/mg and 1.742 µmol Pi/min/mg and 2.222 µmol Pi/min/mg | PGP activity (PGP; 4 µM CP2, PG 200 µM): 4.745 µmol Pi/min/mg and 4.565 µmol Pi/min/mg | PGP activity (PGP; 4 µM CP2, PG 300 µM): 8.4716 µmol Pi/min/mg and 6.669 µmol Pi/min/mg and 5.7679 µmol Pi/min/mg | PGP activity (PGP; 4 µM CP2, PG 400 µM): 10.8148 µmol Pi/min/mg and 9.012 µmol Pi/min/mg | PGP activity (PGP; 4 µM CP2, PG 500 µM): 11.1753 µmol Pi/min/mg and 11.8963 µmol Pi/min/mg and 10.8148 µmol Pi/min/mg | PGP activity (PGP; 4 µM CP2, PG 600 µM): 12.437 µmol Pi/min/mg and 12.9778 µmol Pi/min/mg | PGP activity (PGP; 4 µM CP2, PG 700 µM): 13.5185 µmol Pi/min/mg and 14.0593 µmol Pi/min/mg and 12.9778 µmol Pi/min/mg | PGP activity (PGP; 4 µM CP2, PG 800 µM): 13.3383 µmol Pi/min/mg and 13.879 µmol Pi/min/mg and 14.6 µmol Pi/min/mg
